From PMC3479356 (ChemMedChem, 2012)
Where two headings read alike, the source gives them in different places. Values belong to the compound of their own block, whether it stands above or below them.

What was measured:
[1] = molecular target: T1, recombinant human RXR receptor (Homo sapiens, UniProt P19793); assay: RXR mammalian two-hybrid assay
T1 sequence (P19793 1-462) 1: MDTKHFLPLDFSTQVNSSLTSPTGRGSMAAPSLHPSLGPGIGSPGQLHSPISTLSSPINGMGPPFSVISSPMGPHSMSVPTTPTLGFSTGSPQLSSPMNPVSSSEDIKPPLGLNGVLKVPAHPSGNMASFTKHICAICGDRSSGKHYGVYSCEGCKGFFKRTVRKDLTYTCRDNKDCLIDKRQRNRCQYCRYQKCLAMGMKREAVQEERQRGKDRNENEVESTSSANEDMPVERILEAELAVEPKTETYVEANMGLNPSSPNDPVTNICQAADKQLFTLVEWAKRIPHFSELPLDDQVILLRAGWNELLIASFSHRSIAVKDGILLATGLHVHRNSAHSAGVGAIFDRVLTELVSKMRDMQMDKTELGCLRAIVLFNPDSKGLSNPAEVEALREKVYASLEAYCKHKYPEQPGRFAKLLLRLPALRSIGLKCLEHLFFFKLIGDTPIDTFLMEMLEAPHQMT
T1 sequence (P19793 1-462) 2: T1 sequence (P19793 1-462) 1

[2] = molecular target: T2, human RXRα (Homo sapiens, UniProt P19793); assay: RXRE-mediated transcription assay; assay type: cell-based; settings: 10^−7 M, 24 h
T2 sequence (P19793 1-462): T1 sequence (P19793 1-462) 1

[3] = test system: RXR; settings: Caco-2 colon cancer cells; cited from earlier work

EC50 [1]: 90 nM
SMILES: C=C(c1ccc(C(=O)O)c(Cl)c1)c1cc2c(cc1C)C(C)(C)CCC2(C)C [Analog 12, 2-Chloro-4-(1-(1,2,3,4-tetrahydro-1,1,4,4,6-pentamethylnaphthalen-7-yl)vinyl)benzoic acid]

EC50 [1]: 150 nM
SMILES: C=C(c1ccc(C(=O)O)c(Br)c1)c1cc2c(cc1C)C(C)(C)CCC2(C)C [Analog 14, 2-Bromo-4-(1-(1,2,3,4-tetrahydro-1,1,4,4,6-pentamethylnaphthalen-7-yl)vinyl)benzoic acid]

EC50 [1]: 280 nM | RXR binding and homodimerization, % of the parent compound 1 efficiency ([1]; 10^−7 M, 24 h, independent of the cell line (Caco-2 and HCT-116)): ~20%
SMILES: C=C(c1ccc(C(=O)O)c(I)c1)c1cc2c(cc1C)C(C)(C)CCC2(C)C [Analog 16, 2-Iodo-4-(1-(1,2,3,4-tetrahydro-1,1,4,4,6-pentamethylnaphthalen-7-yl)vinyl)benzoic acid]

SMILES: C=C(c1cc(F)c(C(=O)O)c(F)c1)c1cc2c(cc1C)C(C)(C)CCC2(C)C [Analog 18, 2,6-difluoro-4-(1-(1,2,3,4-tetrahydro-1,1,4,4,6-pentamethylnaphthalen-7-yl)vinyl)benzoic acid]
RXR homodimer-mediated transcription compared with ethanol vehicle ([2]; Caco-2 and HCT-116 cells): significantly better than that of the ethanol vehicle

SMILES: Cc1cc2c(cc1C(=O)c1cc(F)c(C(=O)O)c(F)c1)C(C)(C)CCC2(C)C [Analog 19, 2,6-Difluoro-4-(1-(3,5,5,8,8-pentamethyl-5,6,7,8-tetrahydronaphthalen-2-yl)carbonyl)benzoic acid]
EC50 ([1]; read-out: EC50 value, transfected HCT-116 cells, full dose-response curves 10^−10 to 10^−5 M, ± S.D.): 550 nM

SMILES: C=C(c1ccc(C(=O)O)c(F)c1)c1cc2c(cc1C)C(C)(C)CCC2(C)C [Compound 11, 2-fluoro-4-(1-(1,2,3,4-tetrahydro-1,1,4,4,6-pentamethylnaphthalen-7-yl)vinyl)benzoic acid]
RXR activation compared with 1 [3]: slightly higher RXR activation

SMILES: Cc1cc2c(cc1C(=O)c1ccc(C(=O)O)c(I)c1)C(C)(C)CCC2(C)C [Compound 17, 2-Iodo-4-(1-(3,5,5,8,8-pentamethyl-5,6,7,8-tetrahydronaphthalen-2-yl)carbonyl)benzoic acid]
RXR homodimer-mediated transcription compared with ethanol vehicle ([2]; Caco-2 cells): not able to activate transcription | RXR homodimer-mediated transcription compared with ethanol vehicle ([2]; HCT-116 cells): significant activity
